Data set [1] relates to Acinetobacter baumannii (ATCC 19606). Description: Acinetobacter baumannii sepsis model in mice (survival). It is filed as in vivo. The settings on record: CD-1 mice; for overall survival: separate experiment comparing prodrug with parent compound; for mice surviving during treatment and post-treatment observation periods: dose response study. The method, then: A mice model was created to test the efficacy of LPC-233-Phos-Pro in an Acinetobacter baumannii sepsis model.
Method: Overnight culture of A. baumannii 19606 was inoculated into 50 mL fresh LB with 1:100 dilution. The culture was incubated at 37° C. with vigorous shaking until OD600 reached ˜0.5. The bacteria were harvested, washed, and re-suspended in PBS pH 7.4 buffer. Each CD-1 mouse at the age of 6-7 weeks was injected with about […] Acinetobacter baumannii (ATCC 19606) in a volume of 200 μL intraperitoneally. There were ten mice in each group (five male and five female). About 2 hours post infection, 200 μL of vehicle (5% Captisol dissolved in saline), or LPC-233-Phos-Pro in 5% Captisol at specified concentrations were injected intraperitoneally. 12 hours later, 200 μL of vehicle control or LPC-233-Phos-Pro solutions at desired concentrations were administrated via intraperitoneal injections every 12 hours (Q12H) for a total of ten IP injections. The mice were monitored for an additional 10 days and the percentages of survival were recorded. The same procedure was used in a separate experiment to compare the efficacy of LPC-233 and LPC-233-Phos-Pro.

Data set [2] in a line: Vehicle (Captisol or beta-cyclodextrin) concentration needed to formulate the 100 mg/kg dose. The class given is physicochemical. The settings on record: dose level 100 mg/kg. The method, then: LPC-233 required 30-40% Captisol or beta-cyclodextrin to reach the dose level of 100 mg/kg and beyond. These concentrations of vehicle caused vehicle-related side effects and cannot be used in clinical formulations.

Data set [3] can be described thus: Maximum solubility in 5% Captisol by UV-Vis spectroscopy. It is filed as physicochemical. The settings on record: aqueous with cosolvent or surfactant or cyclodextrin, thermodynamic from solid, absorption at 290 nm, triplicate, averaged. The method, then: Maximum solubility of LPC233-phosphate-ProDrug was determined using UV-Vis spectroscopy. First, a sample of LPC-233-Phos-Pro in 5% Captisol was prepared at 1 mg/mL by dissolving 0.7 mg of compound in 700 μL of 5% Captisol and sonicating for 30 minutes. The sample was then serial diluted 2-fold to generate standard solutions ranging from 0.0625-1 mg/mL. The absorption of each sample at 290 nm was determined via nanodrop, and the values were plotted to generate a linear standard curve of y=3.0336x+0.09 with r^2=0.998 (v=Abs290 nm, x=[drug]mg/mL). Next, a sample of LPC-233-Phos-Pro was prepared based on an assumed concentration of 300 mg/mL in 5% Captisol and allowed to sonicate for 45 minutes. The sample was then vortexed and centrifuged to pellet any undissolved compound. The supernatant was removed and diluted an initial 30× to a theoretical max concentration of 10 mg/mL. From here, the solution was serial diluted 2-fold up to 256×. The absorption of each dilution at 290 nm was measured via nanodrop and values were plotted to the standard curve. These preparations and measurements were performed in triplicate and averaged. The final maximum solubility of LPC-233-Phos-Pro in 5% Captisol was determined to be ˜260±6 mg/mL. […]

The nature of data set [4]: Maximum Tolerated 5-day Repeat dose in male CD-1 mice. It is filed as in vivo. The conditions noted are these: 250 mg/kg/Q12H (500 mg/kg/day) IP over 5 days, 5% Captisol. The method, then:
Additionally, the Maximum Tolerated 5-day Repeat dose of LPC-233-Phos-Pro was tested in male CD-1 mice (n=3). LPC-233-Phos-Pro was prepared in 5% Captisol and 200 μL of solution was administered via IP injection every 12 hours (Q12H) at doses of 250 mg/kg/Q12H (500 mg/kg/day) over the course of 5 days. The mice were weighed daily to monitor animal survival and weight loss.

The structures appear in SMILES notation. Values after ≈ are worked out from the molar mass of the structure shown. Bounds are passed on as bounds.

The term solubility denotes the concentration that dissolves in the medium under given conditions. A higher solubility goes with a readily soluble substance.

Regarding `C[C@@](O)(C(F)F)[C@H](NC(=O)c1ccc(C#CC#CC2CC2)cc1)C(=O)NO` [LPC-233, reference compound], in data set [1] (100 mg/kg Q12H IP), the overall survival turned out to be 70%. For the same molecule, the “Captisol or beta-cyclodextrin concentration required to reach the dose level of 100 mg/kg” value in data set [2] is 30-40%. This molecule also registered a solubility at 45 min in data set [3] of approximately 20 mg/mL (≈ 53.1 mM).
Consider `C[C@@](O)(C(F)F)[C@H](NC(=O)c1ccc(C#CC#CC2CC2)cc1)C(=O)NOP(=O)([O-])[O-].[Na+].[Na+]` [LPC-233-Phos-Pro], for which the “mice surviving during treatment and post-treatment observation periods” value in data set [1] (30 mg/kg Q12H IP) is 90%. In addition, in data set [1] (100 mg/kg Q12H IP), the “mice surviving during treatment and post-treatment observation periods” value is given as “all mice”; the overall survival worked out at 100%. Further, in data set [1] (IP infection with A. baumannii 19606, IP dosing Q12H, ten injections, in 5% Captisol, dose response study 10, 30, 100 mg/kg), the “fitted ED50 (survival)” value is listed as 5.5 mg/kg Q12H. In data set [4], the animal survival entry is listed as “All mice survived” and the weight loss is given as < 10 % of initial body weight. In data set [2], the “Captisol or beta-cyclodextrin concentration required to reach the dose level of 100 mg/kg” value stood at 5%. In data set [3], this molecule registered a solubility at 45 min of approximately 260 mg/mL.
